Measured values from US20240342292A1, “Compounds for the Degradation of EGFR Kinase” (BeiGene Switzerland GmbH, priority 2021, published 2024).

Tests used:
Del19/T790M/C797S EGFR = assay: EGFR degradation HTRF assay in H1975-clone #28 (DTC) cells; type: cell-based; conditions: H1975 # 28 DTC (Del19/T790M/C797S), 16h treatment; for DC50: HTRF; for Dmax (%): maximum percentage of degradation
Method in brief: (§1)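 Engineered H1975 lines (exogenous mutant EGFR, endogenous copies knocked out, single clones sequence-verified); 16 h compound, 37 °C/5% CO2, 0.2% DMSO; top 10 uM, 5-fold, 8 pts; lysis 1 h RT, HTRF antibodies overnight RT; 4-parameter logistic fit → DC50.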

L858R/T790M/C797S EGFR = target: T1, L858R/T790M/C797S EGFR (Homo sapiens, UniProt P00533, C797S/L858R/T790M); assay: EGFR degradation HTRF assay in H1975-clone #25 (LTC) cells; type: cell-based; conditions: 16h treatment; for DC50: H1975 # 25-LTC (L858R/T790M/C797S), HTRF; for Dmax: NCI-H1975, H1975 # 25-LTC (L858R/T790M/C797S), maximum percentage of degradation
T1 construct: expressed in transfected cells; host or cells: H1975 clone #25 (lentiviral over-expression, endogenous EGFR knocked out by sgRNA)
Method in brief: as §1

T1 sequence (P00533 25-1210 T790M/C797S/L858R): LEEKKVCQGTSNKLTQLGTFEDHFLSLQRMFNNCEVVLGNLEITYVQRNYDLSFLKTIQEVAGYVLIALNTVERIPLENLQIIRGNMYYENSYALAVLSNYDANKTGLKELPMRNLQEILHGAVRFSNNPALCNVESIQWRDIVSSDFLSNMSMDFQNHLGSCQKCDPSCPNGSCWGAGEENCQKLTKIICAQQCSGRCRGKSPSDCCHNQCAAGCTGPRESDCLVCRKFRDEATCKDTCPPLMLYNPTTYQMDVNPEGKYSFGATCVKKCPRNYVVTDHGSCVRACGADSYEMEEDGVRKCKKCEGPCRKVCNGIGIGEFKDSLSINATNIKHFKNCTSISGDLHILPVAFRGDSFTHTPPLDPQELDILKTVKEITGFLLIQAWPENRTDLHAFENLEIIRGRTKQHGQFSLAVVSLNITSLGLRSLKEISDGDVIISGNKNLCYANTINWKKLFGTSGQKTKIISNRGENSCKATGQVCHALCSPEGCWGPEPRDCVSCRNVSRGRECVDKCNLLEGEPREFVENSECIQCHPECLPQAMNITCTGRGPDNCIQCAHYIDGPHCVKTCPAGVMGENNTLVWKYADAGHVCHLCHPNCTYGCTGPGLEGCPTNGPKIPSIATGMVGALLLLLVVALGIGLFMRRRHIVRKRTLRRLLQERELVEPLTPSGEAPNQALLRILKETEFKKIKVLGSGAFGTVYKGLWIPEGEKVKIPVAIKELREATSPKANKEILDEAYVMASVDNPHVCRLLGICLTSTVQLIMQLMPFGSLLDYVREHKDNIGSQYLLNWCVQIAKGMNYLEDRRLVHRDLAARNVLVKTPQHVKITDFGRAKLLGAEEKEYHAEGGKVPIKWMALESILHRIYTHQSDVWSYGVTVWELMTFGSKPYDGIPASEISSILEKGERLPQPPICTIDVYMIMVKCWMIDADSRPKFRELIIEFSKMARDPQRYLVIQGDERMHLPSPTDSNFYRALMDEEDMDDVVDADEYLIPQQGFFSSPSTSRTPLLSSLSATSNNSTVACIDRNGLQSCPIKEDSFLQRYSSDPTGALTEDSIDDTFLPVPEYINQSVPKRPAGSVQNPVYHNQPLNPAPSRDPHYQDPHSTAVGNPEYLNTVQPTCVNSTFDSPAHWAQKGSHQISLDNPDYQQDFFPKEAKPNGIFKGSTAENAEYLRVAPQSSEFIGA

For `CCN(CCN1CCN(c2cc(F)c([C@H]3CCC(=O)NC3=O)c(F)c2)CC1)C(=O)c1ccc2c(c1)N1C[C@H](C)CCCOc3c(cnn3C)-c3cc(cc(C)n3)C(=O)/N=C/1N2` [Example 281, (R,E)-N-(2-(4-(4-((R)-2,6-dioxopiperidin-3-yl)-3,5-difluorophenyl)piperazin-1-yl)ethyl)-N-ethyl-1′,2^6,7-trimethyl-3-oxo-5^2,5^3-dihydro-1^1H,5^1H-11-oxa-4-aza-5(2,1)-benzo[d]imidazola-2(2,4)-pyridina-1(4,5)-pyrazolacycloundecaphane-5^6-carboxamide], the DC50 (Del19/T790M/C797S EGFR) was 501 pM, the “Dmax (%)” value (Del19/T790M/C797S EGFR) was 75.01% and the DC50 (L858R/T790M/C797S EGFR) was 411 pM. For the same compound, the Dmax (L858R/T790M/C797S EGFR) was 90.4%.

With `Cc1cc2cc(n1)-c1cnn(C)c1OCCC[C@@H](C)CN1/C(=N/C2=O)Nc2ccc(N3CCN(C4CCN(c5ccc6c(c5)CN([C@H]5CCC(=O)NC5=O)C6=O)CC4)CC3)cc21` [Example 396, (S)-3-(1-oxo-5-(4-(4-((R,E)-1^1,2^6,7-trimethyl-3-oxo-5^2,53-dihydro-1^1H,5^1H-11-oxa-4-aza-5(2,1)-benzo[d]imidazola-2(2,4)-pyridina-1(4,5)-pyrazolacycloundecaphane-5^6-yl)piperazin-1-yl)piperidin-1-yl)isoindolin-2-yl)piperidine-2,6-dione] the DC50 (Del19/T790M/C797S EGFR) was 681 pM, the “Dmax (%)” value (Del19/T790M/C797S EGFR) was 63.49% and the DC50 (L858R/T790M/C797S EGFR) was 622 pM. For the same compound, the Dmax (L858R/T790M/C797S EGFR) was 83.6%.

With `Cc1cc2cc(n1)-c1cnn(C)c1OCCC[C@@H](C)CN1/C(=N/C2=O)Nc2ccc(C(=O)N3CCC(NCCc4cc(F)c([C@H]5CCC(=O)NC5=O)c(F)c4)CC3)cc21` [Example 300, (R)-3-(2,6-difluoro-4-(2-((1-((R,E)-1^1,2^6,7-trimethyl-3-oxo-5^2,5′-dihydro-1^1H,5^1H-11-oxa-4-aza-5(2,1)-benzo[d]imidazola-2(2,4)-pyridina-1(4,5)-pyrazolacycloundecaphane-5^6-carbonyl)piperidin-4-yl)amino)ethyl)phenyl)piperidine-2,6-dione] the DC50 (Del19/T790M/C797S EGFR) was 1480 pM, the “Dmax (%)” value (Del19/T790M/C797S EGFR) was 73.74% and the DC50 (L858R/T790M/C797S EGFR) was 653 pM. The Dmax (L858R/T790M/C797S EGFR) was 88.2%.

`Cc1cc2cc(n1)-c1cnn(C)c1OCCC[C@@H](C)CN1/C(=N/C2=O)Nc2ccc(OC3CCN(C(=O)C4CN(c5cc(F)c([C@H]6CCC(=O)NC6=O)c(F)c5)C4)CC3)cc21` [Example 156, (R)-3-(2,6-difluoro-4-(3-(4-(((R,E)-1^1,2^6,7-trimethyl-3-oxo-5^2,5^3-dihydro-1^1H,5^1H-11-oxa-4-aza-5(2,1)-benzo[d]imidazola-2(2,4)-pyridina-1(4,5)-pyrazolacycloundecaphane-5^6-yl)oxy)piperidine-1-carbonyl)azetidin-1-yl)phenyl)piperidine-2,6-dione] was tested, and the DC50 (Del19/T790M/C797S EGFR) was 1200 pM, the “Dmax (%)” value (Del19/T790M/C797S EGFR) was 72.74% and the DC50 (L858R/T790M/C797S EGFR) was 634 pM. For the same compound, the Dmax (L858R/T790M/C797S EGFR) was 86.9%.

`Cc1cc2cc(n1)-c1cnn(C)c1OCCC[C@@H](C)CN1/C(=N/C2=O)Nc2ccc(C(=O)NC3CN(CCc4cc(F)c([C@H]5CCC(=O)NC5=O)c(F)c4)C3)cc21` [Example 307, (R,E)-N-(1-(4-((R)-2,6-dioxopiperidin-3-yl)-3,5-difluorophenethyl)azetidin-3-yl)-1^1,2^6,7-trimethyl-3-oxo-5^2,5^3-dihydro-1^1H,5^1H-11-oxa-4-aza-5(2,1)-benzo[d]imidazola-2(2,4)-pyridina-1(4,5)-pyrazola cycloundecaphane-5^6-carboxamide] was tested, and the DC50 (Del19/T790M/C797S EGFR) was 1280 pM, the “Dmax (%)” value (Del19/T790M/C797S EGFR) was 52.25% and the DC50 (L858R/T790M/C797S EGFR) was 1780 pM. It also gave a Dmax (L858R/T790M/C797S EGFR) of 84.8%.

For `COC[C@H]1CN(C(=O)[C@@H]2CCN(c3cc(F)c([C@H]4CCC(=O)NC4=O)c(F)c3)C2)CCN1Cc1ccc2c(c1)N1C[C@H](C)CCCOc3c(cnn3C)-c3cc(cc(C)n3)C(=O)/N=C/1N2` [Example 194, (R)-3-(2,6-difluoro-4-((R)-3-((R)-3-(methoxymethyl)-4-(((R,E)-1^1,2^6,7-trimethyl-3-oxo-5^2,5^3-dihydro-1^1H,5^1H-11-oxa-4-aza-5(2,1)-benzo[d]imidazola-2(2,4)-pyridina-1(4,5)-pyrazolacycloundecaphane-5′-yl)methyl)piperazine-1-carbonyl)pyrrolidin-1-yl)phenyl)piperidine-2,6-dione], the DC50 (Del19/T790M/C797S EGFR) was 836 pM, the “Dmax (%)” value (Del19/T790M/C797S EGFR) was 79.44% and the DC50 (L858R/T790M/C797S EGFR) was 1180 pM. For the same compound, the Dmax (L858R/T790M/C797S EGFR) was 84.4%.

`Cc1cc2cc(n1)-c1cnn(C)c1OCCC[C@@H](C)CN1/C(=N/C2=O)Nc2ccc(N3CCC(C(=O)N4CCN(c5cc(F)c([C@H]6CCC(=O)NC6=O)c(F)c5)CC4)CC3)cc21` [Example 333, (R)-3-(2,6-difluoro-4-(4-(1-((R,E)-1^1,2^6,7-trimethyl-3-oxo-5^2,5^3-dihydro-1^1H,5^1H-11-oxa-4-aza-5(2,1)-benzo[d]imidazola-2(2,4)-pyridina-1(4,5)-pyrazolacycloundecaphane-5^6-yl)piperidine-4-carbonyl)piperazin-1-yl)phenyl)piperidine-2,6-dione] was tested, and the DC50 (Del19/T790M/C797S EGFR) was 684 pM, the “Dmax (%)” value (Del19/T790M/C797S EGFR) was 75.17% and the DC50 (L858R/T790M/C797S EGFR) was 687 pM. The Dmax (L858R/T790M/C797S EGFR) was 86.1%.

With `Cc1cc2cc(n1)-c1cnn(C)c1OCCC[C@@H](C)CN1/C(=N/C2=O)Nc2ccc(C(=O)N(C)C3CCN(CCc4cccc5c4n(C)c(=O)n5C4CCC(=O)NC4=O)CC3)cc21` (stereo partly drawn) [Example 314, (7R,E)-N-(1-(2-(1-(2,6-dioxopiperidin-3-yl)-3-methyl-2-oxo-2,3-dihydro-1H-benzo[d]imidazol-4-yl)ethyl)piperidin-4-yl)-N,1^1,2^6,7-tetramethyl-3-oxo-5^2,5′-dihydro-1^1H,5^1H-11-oxa-4-aza-5(2,1)-benzo[d]imidazola-2(2,4)-pyridina-1(4,5)-pyrazolacycloundecaphane-5^6-carboxamide] the DC50 (Del19/T790M/C797S EGFR) was 3370 pM, the “Dmax (%)” value (Del19/T790M/C797S EGFR) was 50.86% and the DC50 (L858R/T790M/C797S EGFR) was 2590 pM. The Dmax (L858R/T790M/C797S EGFR) was 75.3%.

`Cc1cc2cc(n1)-c1cnn(C)c1OCCC[C@@H](C)CN1/C(=N/C2=O)Nc2ccc(CCN3CCN(c4cc(F)c([C@H]5CCC(=O)NC5=O)c(F)c4)CC3)cc21` [Example 446, (R)-3-(2,6-difluoro-4-(4-(2-((R,E)-1^1,2^6,7-trimethyl-3-oxo-5^2,5^3-dihydro-1^1H,5^1H-11-oxa-4-aza-5(2,1)-benzo[d]imidazola-2(2,4)-pyridina-1(4,5)-pyrazolacycloundecaphane-5^6-yl)ethyl)piperazin-1-yl)phenyl)piperidine-2,6-dione] was tested, and the DC50 (Del19/T790M/C797S EGFR) was 1190 pM, the “Dmax (%)” value (Del19/T790M/C797S EGFR) was 76.42% and the DC50 (L858R/T790M/C797S EGFR) was 696 pM. It also gave a Dmax (L858R/T790M/C797S EGFR) of 91.8%.

For `COC[C@@H]1CN(Cc2ccc3c(c2)N2C[C@H](C)CCCOc4c(cnn4C)-c4cc(cc(C)n4)C(=O)/N=C/2N3)CCN1C(=O)[C@@H]1CCN(c2cc(F)c([C@H]3CCC(=O)NC3=O)c(F)c2)C1` [Example 202, (R)-3-(2,6-difluoro-4-((R)-3-((S)-2-(methoxymethyl)-4-(((R,E)-1^1,2^6,7-trimethyl-3-oxo-5^2,5^3-dihydro-1^1H,5^1H-li-oxa-4-aza-5(2,1)-benzo[d]imidazola-2(2,4)-pyridina-(4,5)-pyrazolacycloundecaphane-5^6-yl)methyl)piperazine-1-carbonyl)pyrrolidin-1-yl)phenyl)piperidine-2,6-dione], the DC50 (Del19/T790M/C797S EGFR) was 1320 pM, the “Dmax (%)” value (Del19/T790M/C797S EGFR) was 72.07% and the DC50 (L858R/T790M/C797S EGFR) was 890 pM. It also gave a Dmax (L858R/T790M/C797S EGFR) of 78.8%.

In the case of `CO[C@@H]1CN(CCc2cc(F)c([C@H]3CCC(=O)NC3=O)c(F)c2)CC[C@H]1N(C)C(=O)c1ccc2c(c1)N1C[C@H](C)CCCOc3c(cnn3C)-c3cc(cc(C)n3)C(=O)/N=C/1N2` [Example 254, (R,E)-N—((3R,4R)-1-(4-((R)-2,6-dioxopiperidin-3-yl)-3,5-difluorophenethyl)-3-methoxypiperidin-4-yl)-N,1^1,2^6,7-tetramethyl-3-oxo-5^2,5^3-dihydro-1^1H,5^1H-11-oxa-4-aza-5(2,1)-benzo[d]imidazola-2(2,4) -pyridina-1(4,5)-pyrazolacycloundecaphane-5^6-carboxamide], the DC50 (Del19/T790M/C797S EGFR) was 624 pM, the “Dmax (%)” value (Del19/T790M/C797S EGFR) was 86.3% and the DC50 (L858R/T790M/C797S EGFR) was 910 pM. It also gave a Dmax (L858R/T790M/C797S EGFR) of 91.2%.

`Cc1cc2cc(n1)-c1cnn(C)c1OCCC[C@@H](C)CN1/C(=N/C2=O)Nc2ccc(C(=O)N(CCN3CCN(c4cc(F)c([C@H]5CCC(=O)NC5=O)c(F)c4)CC3)C(C)C)cc21` [Example 282, (R,E)-N-(2-(4-(4-((R)-2,6-dioxopiperidin-3-yl)-3,5-difluorophenyl)piperazin-1-yl)ethyl)-N-isopropyl-1^1,2^6,7-trimethyl-3-oxo-5^2,5^3-dihydro-1^1H,5^1H-11-oxa-4-aza-5(2,1)-benzo[d]imidazola-2(2,4)-pyridina-1(4,5)-pyrazolacycloundecaphane-5^6-carboxamide] was tested, and the DC50 (Del19/T790M/C797S EGFR) was 657 pM, the “Dmax (%)” value (Del19/T790M/C797S EGFR) was 77.76% and the DC50 (L858R/T790M/C797S EGFR) was 752 pM. For the same compound, the Dmax (L858R/T790M/C797S EGFR) was 82.9%.

In the case of `Cc1cc2cc(n1)-c1cnn(C)c1OCCC[C@@H](C)CN1/C(=N/C2=O)Nc2ccc(C(=O)N(C)C[C@H]3CCN(CCc4cc(F)c([C@H]5CCC(=O)NC5=O)c(F)c4)CC3(F)F)cc21` [Example 274, (R,E)-N—(((R)-1-(4-((R)-2,6-dioxopiperidin-3-yl)-3,5-difluorophenethyl)-3,3-difluoropiperidin-4-yl)methyl)-N,1^1,2^6,7-tetramethyl-3-oxo-5^2,5^3-dihydro-1^1H,5^1H-11-oxa-4-aza-5(2,1)-benzo[d]imidazola-2(2,4)-pyridina-1(4,5)-pyrazolacycloundecaphane-5^6-carboxamide], the DC50 (Del19/T790M/C797S EGFR) was 691 pM, the “Dmax (%)” value (Del19/T790M/C797S EGFR) was 48.56% and the DC50 (L858R/T790M/C797S EGFR) was 1630 pM. It also gave a Dmax (L858R/T790M/C797S EGFR) of 69.2%.
